These results are taken from PMC6581923 (Journal of Molecular Neuroscience, 2018).

The structures appear in SMILES notation. Entries after “also recorded” stand apart in the source; their conditions may differ.

The test system of series [1] is retina (BCCAO-induced retinopathy). In words: Retinal layer thickness / morphology after bilateral carotid artery occlusion (BCCAO), eye drops. The class given is in vivo, rat (male). Conditions: for Retinoprotective efficacy of eye drops, overall / compared with untagged peptide: topical eye drops in SOCB. On the procedure: (§1) Adult male rat litters were housed in the animal facility in individual cages in a 12 h light-dark cycle with food and water ad libitum. Animal housing, care and application of experimental procedures were in accordance with institutional guidelines under approved protocols (No: BA02/2000–26/2017, University of Pecs). Under isoflurane anesthesia, common carotid arteries were exposed on both sides through a midline incision and then ligated with a 3–0 filament. A group of animals (sham group) underwent all steps of the operating procedure except ligation of the carotid arteries. Immediately following the operation, the right eye of the animals was treated with derivatives of PACAP (PACAP-TAT /n = 17/ or VIP-TAT /n = 17/) eye drops (1 μg/drop). Dose and schedule of the eye drop treatments were based on our previous experiments (Werling et al. [2016]). In the experiment for histological analysis, the different derivatives were dissolved in benzalkonium solution for ophthalmic use (solutio ophthalmica cum benzalkonio (SOCB)). The left eye, serving as a control, was treated with vehicle containing neither PACAP-TAT nor VIP-TAT. Animals were treated for five consecutive days, twice a day with one drop of drug, under brief isoflurane anesthesia (max. 5 min).
(§2) Fourteen days after the operation, rats (n = 10 SHAM and n = 24 BCCAO) were killed with anesthetic and the eyes were processed for histology. The eyes were removed and the retinas were solved in phosphate buffered saline (PBS), fixed in 4% paraformaldehyde dissolved in 0.1 M phosphate buffer (PB) (Sigma, Budapest, Hungary) and embedded in Durcupan ACM resin (Sigma, Budapest, Hungary). Retinas were cut at 2 μm and stained with toluidine blue dye (Sigma, Hungary). Sections were mounted in DPX medium (Sigma, Hungary) and photographs were taken with a digital CCD camera using the Spot program. Central retinal areas within 1 mm from the optic nerve were used (n = 5 measurements from one tissue block). The following parameters were measured: (i) cross-section of the retina from the outer limiting membrane (OLM) to the inner limiting membrane (ILM), (ii) the width of individual retinal layers (outer nuclear layer [ONL], outer plexiform layer [OPL], inner nuclear layer [INL], inner plexiform layer [IPL]), (iii) the number of cells/100 μm section length in the GCL, and the (iv) number of cells/[…]. Results are presented as mean ± SEM. Statistical comparisons were made using the two-way ANOVA test followed by Tukey’s post hoc analysis.
Fig. 4 Quantification of retinal layers in SHAM+SOCB, in SHAM+PACAP-TAT, in BCCAO+SOCB, and in BCCAO+PACAP-TAT animals; the right eye was treated with PACAP-TAT eye drops, the left eye served as controls receiving only SOCB. Comparison of all retinal layers (a–e). […] Statistical significance (*p < 0.05 vs. SHAM+SOCB retinas, #p < 0.05 vs. BCCAO+SOCB retinas) was calculated by two-way ANOVA followed by Fischer’s post hoc test
Fig. 6 Quantification of retinal layers in SHAM+SOCB, in SHAM+VIP-TAT, in BCCAO+SOCB, and in BCCAO+VIP-TAT animals; the right eye was treated with VIP-TAT eye drops, the left eye served as control receiving only SOCB. Comparison of all retinal layers (a–e). […] Statistical significance (*p < 0.05 vs. SHAM+SOCB retinas, #p < 0.05 vs. BCCAO+SOCB retinas) was calculated by two-way ANOVA followed by Fischer’s post hoc test

The test system is the same in series [2]. In words: Number of cells in retinal nuclear layers and GCL after BCCAO, eye drops. The class given is in vivo, rat (male). To be noted: eye drops 1 μg/drop, twice a day, five days, vs BCCAO-induced degenerated retinas, 14 days. Here is the method: as §1, §2
Fig. 5 Quantification of the number of cells/100 μm GCL length (a), the number of cells/500 μm^2 ONL (b) and INL (c) areas in SHAM+SOCB, in SHAM+PACAP-TAT, in BCCAO+SOCB, and in BCCAO+PACAP-TAT animals. Statistical significance (*p < 0.05 vs. SHAM+SOCB retinas, #p < 0.05 vs. BCCAO+SOCB retinas) was calculated by two-way ANOVA followed by Bonferroni’s post hoc test
Fig. 7 Quantification of the number of cells/100 μm GCL length (a), the number of cells/500 μm^2 ONL (b) and INL (c) areas in SHAM+SOCB, in SHAM+VIP-TAT, in BCCAO+SOCB, and in BCCAO+VIP-TAT animals. Statistical significance (*p < 0.05 vs. SHAM+SOCB retinas, #p < 0.05 vs. BCCAO+SOCB retinas) was calculated by two-way ANOVA followed by Bonferroni’s post hoc test

`CC[C@H](C)[C@H](NC(=O)[C@H](CO)NC(=O)[C@H](CC(N)=O)NC(=O)[C@H](CC(C)C)NC(=O)[C@H](Cc1ccc(O)cc1)NC(=O)[C@H](CCCCN)NC(=O)[C@H](CCCCN)NC(=O)[C@@H](NC(=O)[C@H](C)NC(=O)[C@H](CCSC)NC(=O)[C@H](CCC(N)=O)NC(=O)[C@H](CCCCN)NC(=O)[C@H](CCCNC(=N)N)NC(=O)[C@H](CC(C)C)NC(=O)[C@H](CCCNC(=N)N)NC(=O)[C@@H](NC(=O)[C@H](Cc1ccc(O)cc1)NC(=O)[C@H](CC(N)=O)NC(=O)[C@H](CC(=O)O)NC(=O)[C@@H](NC(=O)[C@H](Cc1ccccc1)NC(=O)[C@@H](NC(=O)[C@H](C)NC(=O)[C@H](CC(=O)O)NC(=O)[C@H](CO)NC(=O)[C@@H](N)Cc1c[nH]cn1)C(C)C)[C@@H](C)O)[C@@H](C)O)C(C)C)C(=O)N[C@@H](CC(C)C)C(=O)N[C@@H](CC(N)=O)C(=O)NCC(=O)N[C@@H](CCCNC(=N)N)C(=O)N[C@@H](CCCCN)C(=O)N[C@@H](CCCCN)C(=O)N[C@@H](CCCNC(=N)N)C(=O)N[C@@H](CCCNC(=N)N)C(=O)N[C@@H](CCC(N)=O)C(=O)N[C@@H](CCCNC(=N)N)C(=O)N[C@@H](CCCNC(=N)N)C(=O)N[C@@H](CCCNC(=N)N)C(=O)N1CCC[C@H]1C(=O)N[C@@H](CCC(N)=O)C(=O)O` [VIP-TAT]: the “OPL preservation after BCCAO” value in series [1] (BCCAO + eye drops, OPL almost disappeared in several BCCAO-induced degenerated retinas) is reported as “preserved”. Also, the “Retinal degeneration in light microphotographs after BCCAO” value in series [1] (BCCAO + eye drops, toluidine blue sections, 14 days, severe degeneration in BCCAO+SOCB) is reported as “only mild degeneration”. The “Retinoprotective efficacy of eye drops, overall / compared with untagged peptide” value in series [1] (BCCAO) is “attenuate ischemic retinal degeneration via the PAC1 receptor”; in series [1] (BCCAO, listed as TAT-bound VIP) it was “a similar degree of protection”; in series [1] (BCCAO, listed as VIP bound to TAT peptide) it was “could effectively traverse the ocular barriers and exert a neuroprotective effect in the retina; also recorded: much stronger retinoprotective effects when bound to TAT”. Besides, the “Retinal layer thickness (OLM-ILM, ONL, OPL, INL, IPL) after BCCAO” value in series [1] (BCCAO, eye drops 1 μg/drop, twice a day, five consecutive days, in SOCB, right eye, left eye SOCB control, 14 days, p < 0.05 vs. BCCAO+SOCB) is “significant amelioration in all retinal layers; also recorded: improved the structure of all the retinal layers”. For the same compound, the “Change of retinal thickness in sham animals” value in series [1] (eye drops alone in sham animals, 1 μg/drop, twice a day, five consecutive days, in SOCB, histology 14 days after operation) is on record as “did not cause any changes in the retinal thickness”. For the same compound, the “Number of cells in the GCL/100 μm after BCCAO” value in series [2] is listed as “reduced cell loss in almost all nuclear layers, except in the ONL/500 μm2”. In series [2], the “Number of cells in the INL/500 μm2 after BCCAO” value is listed as “reduced cell loss in almost all nuclear layers, except in the ONL/500 μm2”.
